Source: ChEMBL document CHEMBL1135259, “Azapeptides as inhibitors of the hepatitis C virus NS3 serine protease” (Bioorg Med Chem Lett, 2002)

Legend:
Parameters in all cases: species or system Hepacivirus hominis
NS3 [1] = molecular target: T1, NS3 (Hepatitis C virus, UniProt A3EZJ3); experiment: Binding affinity against Hepatitis C virus NS3 protease
NS3 [2] = molecular target: T1, NS3; experiment: Compound was evaluated for its binding affinity against NS3 protease
NS3 [3] = molecular target: T1, NS3; experiment: Binding affinity against Hepatitis C virus NS3 protease was calculated as Kcat

T1 sequence (A3EZJ3 whole entry): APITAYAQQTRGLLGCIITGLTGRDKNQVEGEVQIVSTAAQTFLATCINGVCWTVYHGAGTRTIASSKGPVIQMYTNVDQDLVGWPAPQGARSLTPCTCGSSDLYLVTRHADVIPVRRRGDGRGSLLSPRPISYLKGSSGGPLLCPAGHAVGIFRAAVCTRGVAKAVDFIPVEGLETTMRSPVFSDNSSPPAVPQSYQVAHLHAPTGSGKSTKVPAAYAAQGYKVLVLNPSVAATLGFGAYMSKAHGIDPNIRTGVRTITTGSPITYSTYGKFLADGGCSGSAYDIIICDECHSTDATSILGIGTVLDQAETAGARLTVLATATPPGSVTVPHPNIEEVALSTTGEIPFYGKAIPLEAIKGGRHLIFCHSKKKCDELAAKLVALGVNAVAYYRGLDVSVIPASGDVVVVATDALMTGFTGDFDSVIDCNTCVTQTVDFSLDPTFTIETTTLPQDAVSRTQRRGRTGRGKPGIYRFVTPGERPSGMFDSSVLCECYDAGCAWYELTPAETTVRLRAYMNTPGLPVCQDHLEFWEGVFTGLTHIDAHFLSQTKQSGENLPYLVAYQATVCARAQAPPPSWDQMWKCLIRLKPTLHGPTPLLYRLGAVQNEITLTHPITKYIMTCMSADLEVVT

Ki (NS3 [1]) [µM]	SMILES	Ki (NS3 [2]) [µM]	Ki (NS3 [3]) [min⁻¹]
> 100	CCCN(NC(=O)[C@H]1CCCN1C(=O)[C@@H](NC(=O)[C@@H](NC(=O)[C@H](CC(=O)O)NC(=O)[C@H](CCC(=O)O)NC(=O)[C@@H](NC(=O)[C@H](CC(=O)O)NC(C)=O)[C@@H](C)O)C(C)C)C(C)C)C(=O)c1ccc(/N=N\c2ccc([N+](=O)[O-])cc2)cc1		
> 200	CSCC[C@H](NC(=O)[C@H](CO)NC(=O)NNC(=O)[C@H]1CCCN1C(=O)[C@@H](NC(=O)[C@@H](NC(=O)[C@H](CC(=O)O)NC(=O)[C@H](CCC(=O)O)NC(=O)[C@@H](NC(=O)[C@H](CC(=O)O)NC(C)=O)[C@@H](C)O)C(C)C)C(C)C)C(=O)N[C@@H](CO)C(=O)N[C@@H](Cc1ccc(O)cc1)C(=O)N[C@H](C(=O)N[C@@H](Cc1c[nH]c2ccccc12)C(=O)N[C@H](C(=O)NCC(=O)N[C@@H](CCCCN)C(=O)O)[C@@H](C)O)[C@@H](C)O		
160	CCCN(NC(=O)[C@H]1CCCN1C(=O)[C@@H](NC(=O)[C@@H](NC(=O)[C@H](CC(=O)O)NC(=O)[C@H](CCC(=O)O)NC(=O)[C@@H](NC(=O)[C@H](CC(=O)O)NC(C)=O)[C@@H](C)O)C(C)C)C(C)C)C(=O)Sc1ccccc1		
10	CCCN(NC(=O)[C@H]1CCCN1C(=O)[C@@H](NC(=O)[C@@H](NC(=O)[C@H](CC(=O)O)NC(=O)[C@H](CCC(=O)O)NC(=O)[C@@H](NC(=O)[C@H](CC(=O)O)NC(C)=O)[C@@H](C)O)C(C)C)C(C)C)C(=O)N[C@@H](CO)C(=O)N[C@@H](CCSC)C(=O)N[C@@H](CO)C(=O)N[C@@H](Cc1ccc(O)cc1)C(=O)N[C@H](C(=O)N[C@@H](Cc1c[nH]c2ccccc12)C(=O)N[C@H](C(=O)NCC(=O)N[C@@H](CCCCN)C(=O)O)[C@@H](C)O)[C@@H](C)O		

SMILES	Ki (NS3 [1]) [µM]	Ki (NS3 [2]) [µM]	Ki (NS3 [3]) [min⁻¹]
CCCN(NC(=O)[C@H]1CCCN1C(=O)[C@@H](NC(=O)[C@@H](NC(=O)[C@H](CC(=O)O)NC(=O)[C@H](CCC(=O)O)NC(=O)[C@@H](NC(=O)[C@H](CC(=O)O)NC(C)=O)[C@@H](C)O)C(C)C)C(C)C)C(=O)Oc1ccc([N+](=O)[O-])cc1	2	3	0.5
